What was measured:
Experiment in all cases: cells
K562 [1] = format: functional; settings: Homo sapiens, time 48 hrs
Description: Growth inhibition of human K562 cells measured after 48 hrs by sulforhodamine B assay

HOP-92 [2] = format: functional; settings: Homo sapiens, time 48 hrs
Description: Growth inhibition of human HOP-92 cells measured after 48 hrs by sulforhodamine B assay

NCI-H322M = format: functional; settings: Homo sapiens, time 48 hrs
Description: Growth inhibition of human NCI-H322M cells measured after 48 hrs by sulforhodamine B assay

COLO 205 [3] = format: functional; settings: Homo sapiens, time 48 hrs
Description: Growth inhibition of human COLO 205 cells measured after 48 hrs by sulforhodamine B assay

HT-29 = format: functional; settings: Homo sapiens, time 48 hrs
Description: Growth inhibition of human HT-29 cells measured after 48 hrs by sulforhodamine B assay

KM12 = format: functional; settings: Homo sapiens, time 48 hrs
Description: Growth inhibition of human KM12 cells measured after 48 hrs by sulforhodamine B assay

LOX IMVI = format: functional; settings: Homo sapiens, time 48 hrs
Description: Growth inhibition of human LOX IMVI cells measured after 48 hrs by sulforhodamine B assay

SK-MEL-5 = format: functional; settings: Homo sapiens, time 48 hrs
Description: Growth inhibition of human SK-MEL-5 cells measured after 48 hrs by sulforhodamine B assay

UACC-62 = format: functional; settings: Homo sapiens, time 48 hrs
Description: Growth inhibition of human UACC-62 cells measured after 48 hrs by sulforhodamine B assay

OVCAR-3 [4] = format: functional; settings: Homo sapiens, time 48 hrs
Description: Growth inhibition of human OVCAR-3 cells measured after 48 hrs by sulforhodamine B assay

OVCAR-5 [5] = format: functional; settings: Homo sapiens, time 48 hrs
Description: Growth inhibition of human OVCAR-5 cells measured after 48 hrs by sulforhodamine B assay

786-0 = format: functional; settings: Homo sapiens, time 48 hrs
Description: Growth inhibition of human 786-0 cells measured after 48 hrs by sulforhodamine B assay

ACHN [6] = format: functional; settings: Homo sapiens, time 48 hrs
Description: Growth inhibition of human ACHN cells measured after 48 hrs by sulforhodamine B assay

CAKI-1 [7] = format: functional; settings: Homo sapiens, time 48 hrs
Description: Growth inhibition of human CAKI-1 cells measured after 48 hrs by sulforhodamine B assay

RXF 393 [8] = format: functional; settings: Homo sapiens, time 48 hrs
Description: Growth inhibition of human RXF 393 cells measured after 48 hrs by sulforhodamine B assay

SN12C = format: functional; settings: Homo sapiens, time 48 hrs
Description: Growth inhibition of human SN12C cells measured after 48 hrs by sulforhodamine B assay

TK-10 [9] = format: functional; settings: Homo sapiens, time 48 hrs
Description: Growth inhibition of human TK-10 cells measured after 48 hrs by sulforhodamine B assay

UO-31 [10] = format: functional; settings: Homo sapiens, time 48 hrs
Description: Growth inhibition of human UO-31 cells measured after 48 hrs by sulforhodamine B assay

MCF7 = format: functional; settings: Homo sapiens, time 48 hrs
Description: Growth inhibition of human MCF7 cells measured after 48 hrs by sulforhodamine B assay

MOLT-4 = format: functional; settings: Homo sapiens, time 48 hrs
Description: Cytostatic activity against human MOLT-4 cells assessed as total growth inhibition measured after 48 hrs by sulforhodamine B assay

SR [11] = format: functional; settings: Homo sapiens, time 48 hrs
Description: Cytostatic activity against human SR cells assessed as total growth inhibition measured after 48 hrs by sulforhodamine B assay

HOP-62 = format: functional; settings: Homo sapiens, time 48 hrs
Description: Cytostatic activity against human HOP-62 cells assessed as total growth inhibition measured after 48 hrs by sulforhodamine B assay

HCT-15 [12] = format: functional; settings: Homo sapiens, time 48 hrs
Description: Cytostatic activity against human HCT-15 cells assessed as total growth inhibition measured after 48 hrs by sulforhodamine B assay

SW-620 [13] = format: functional; settings: Homo sapiens, time 48 hrs
Description: Cytostatic activity against human SW620 cells assessed as total growth inhibition measured after 48 hrs by sulforhodamine B assay

SNB-19 = format: functional; settings: Homo sapiens, time 48 hrs
Description: Cytostatic activity against human SNB-19 cells assessed as total growth inhibition measured after 48 hrs by sulforhodamine B assay

U-251 [14] = format: functional; settings: Homo sapiens, time 48 hrs
Description: Cytostatic activity against human U-251 cells assessed as total growth inhibition measured after 48 hrs by sulforhodamine B assay

Malme-3M = format: functional; settings: Homo sapiens, time 48 hrs
Description: Cytostatic activity against human Malme-3M cells assessed as total growth inhibition measured after 48 hrs by sulforhodamine B assay

SK-MEL-2 = format: functional; settings: Homo sapiens, time 48 hrs
Description: Cytostatic activity against human SK-MEL-2 cells assessed as total growth inhibition measured after 48 hrs by sulforhodamine B assay

SK-MEL-28 [15] = format: functional; settings: Homo sapiens, time 48 hrs
Description: Cytostatic activity against human SK-MEL-28 cells assessed as total growth inhibition measured after 48 hrs by sulforhodamine B assay

IGROV-1 = format: functional; settings: Homo sapiens, time 48 hrs
Description: Cytostatic activity against human IGROV-1 cells assessed as total growth inhibition measured after 48 hrs by sulforhodamine B assay

OVCAR-4 [16] = format: functional; settings: Homo sapiens, time 48 hrs
Description: Cytostatic activity against human OVCAR-4 cells assessed as total growth inhibition measured after 48 hrs by sulforhodamine B assay

OVCAR-8 = format: functional; settings: Homo sapiens, time 48 hrs
Description: Cytostatic activity against human OVCAR-8 cells assessed as total growth inhibition measured after 48 hrs by sulforhodamine B assay

CAKI-1 [17] = format: functional; settings: Homo sapiens, time 48 hrs; remark: listed apart in the source
Description: Cytostatic activity against human CAKI-1 cells assessed as total growth inhibition measured after 48 hrs by sulforhodamine B assay

RXF 393 [18] = format: functional; settings: Homo sapiens, time 48 hrs; remark: listed apart in the source
Description: Cytostatic activity against human RXF 393 cells assessed as total growth inhibition measured after 48 hrs by sulforhodamine B assay

TK-10 [19] = format: functional; settings: Homo sapiens, time 48 hrs; remark: listed apart in the source
Description: Cytostatic activity against human TK-10 cells assessed as total growth inhibition measured after 48 hrs by sulforhodamine B assay

MDA-MB-231 = format: functional; settings: Homo sapiens, time 48 hrs
Description: Cytostatic activity against human MDA-MB-231 cells assessed as total growth inhibition measured after 48 hrs by sulforhodamine B assay

BT-549 [20] = format: functional; settings: Homo sapiens, time 48 hrs
Description: Cytostatic activity against human BT-549 cells assessed as total growth inhibition measured after 48 hrs by sulforhodamine B assay

T47D = format: functional; settings: Homo sapiens, time 48 hrs
Description: Cytostatic activity against human T47D cells assessed as total growth inhibition measured after 48 hrs by sulforhodamine B assay

K562 [21] = settings: Homo sapiens, K562, 48 h, read-out: LC50
Description: Cytotoxicity activity against human K562 cells assessed as reduction in cell growth measured after 48 hrs by sulforhodamine B assay

SR [22] = settings: Homo sapiens, 48 h, read-out: LC50
Description: Cytotoxicity activity against human SR cells assessed as reduction in cell growth measured after 48 hrs by sulforhodamine B assay

HOP-92 [23] = settings: Homo sapiens, HOP-92, 48 h, read-out: LC50
Description: Cytotoxicity activity against human HOP-92 cells assessed as reduction in cell growth measured after 48 hrs by sulforhodamine B assay

NCI-H460 = settings: Homo sapiens, NCI-H460, 48 h, read-out: LC50
Description: Cytotoxicity activity against human NCI-H460 cells assessed as reduction in cell growth measured after 48 hrs by sulforhodamine B assay

COLO 205 [24] = settings: Homo sapiens, COLO 205, 48 h, read-out: LC50
Description: Cytotoxicity activity against human COLO 205 cells assessed as reduction in cell growth measured after 48 hrs by sulforhodamine B assay

HCC 2998 = settings: Homo sapiens, HCC 2998, 48 h, read-out: LC50
Description: Cytotoxicity activity against human HCC 2998 cells assessed as reduction in cell growth measured after 48 hrs by sulforhodamine B assay

HCT-15 [25] = settings: Homo sapiens, HCT-15, 48 h, read-out: LC50
Description: Cytotoxicity activity against human HCT-15 cells assessed as reduction in cell growth measured after 48 hrs by sulforhodamine B assay

SW-620 [26] = settings: Homo sapiens, SW-620, 48 h, read-out: LC50
Description: Cytotoxicity activity against human SW620 cells assessed as reduction in cell growth measured after 48 hrs by sulforhodamine B assay

SF-268 = settings: Homo sapiens, SF-268, 48 h, read-out: LC50
Description: Cytotoxicity activity against human SF-268 cells assessed as reduction in cell growth measured after 48 hrs by sulforhodamine B assay

SF-295 = settings: Homo sapiens, SF-295, 48 h, read-out: LC50
Description: Cytotoxicity activity against human SF-295 cells assessed as reduction in cell growth measured after 48 hrs by sulforhodamine B assay

U-251 [27] = settings: Homo sapiens, U-251, 48 h, read-out: LC50
Description: Cytotoxicity activity against human U-251 cells assessed as reduction in cell growth measured after 48 hrs by sulforhodamine B assay

MDA-MB-435 = settings: Homo sapiens, MDA-MB-435, 48 h, read-out: LC50
Description: Cytotoxicity activity against human MDA-MB-435 cells assessed as reduction in cell growth measured after 48 hrs by sulforhodamine B assay

SK-MEL-28 [28] = settings: Homo sapiens, SK-MEL-28, 48 h, read-out: LC50
Description: Cytotoxicity activity against human SK-MEL-28 cells assessed as reduction in cell growth measured after 48 hrs by sulforhodamine B assay

UACC-257 = settings: Homo sapiens, UACC-257, 48 h, read-out: LC50
Description: Cytotoxicity activity against human UACC-257 cells assessed as reduction in cell growth measured after 48 hrs by sulforhodamine B assay

OVCAR-3 [29] = settings: Homo sapiens, OVCAR-3, 48 h, read-out: LC50
Description: Cytotoxicity activity against human OVCAR-3 cells assessed as reduction in cell growth measured after 48 hrs by sulforhodamine B assay

OVCAR-4 [30] = settings: Homo sapiens, OVCAR-4, 48 h, read-out: LC50
Description: Cytotoxicity activity against human OVCAR-4 cells assessed as reduction in cell growth measured after 48 hrs by sulforhodamine B assay

OVCAR-5 [31] = settings: Homo sapiens, OVCAR-5, 48 h, read-out: LC50
Description: Cytotoxicity activity against human OVCAR-5 cells assessed as reduction in cell growth measured after 48 hrs by sulforhodamine B assay

ACHN [32] = settings: Homo sapiens, 48 h, read-out: LC50
Description: Cytotoxicity activity against human ACHN cells assessed as reduction in cell growth measured after 48 hrs by sulforhodamine B assay

TK-10 [33] = settings: Homo sapiens, TK-10, 48 h, read-out: LC50
Description: Cytotoxicity activity against human TK-10 cells assessed as reduction in cell growth measured after 48 hrs by sulforhodamine B assay

UO-31 [34] = settings: Homo sapiens, UO-31, 48 h, read-out: LC50
Description: Cytotoxicity activity against human UO-31 cells assessed as reduction in cell growth measured after 48 hrs by sulforhodamine B assay

DU-145 = settings: Homo sapiens, DU-145, 48 h, read-out: LC50
Description: Cytotoxicity activity against human DU-145 cells assessed as reduction in cell growth measured after 48 hrs by sulforhodamine B assay

BT-549 [35] = settings: Homo sapiens, BT-549, 48 h, read-out: LC50
Description: Cytotoxicity activity against human BT-549 cells assessed as reduction in cell growth measured after 48 hrs by sulforhodamine B assay

Structure (SMILES): CCOC(=O)c1ccc(N/N=C/c2cn(-c3ccc(S(N)(=O)=O)cc3)nc2-c2ccc(C)cc2)cc1
- GI50 (K562 [1]): 2.88 µM
- GI50 (HOP-92 [2]): 2.79 µM
- GI50 (NCI-H322M): 5.38 µM
- GI50 (COLO 205 [3]): 11.2 µM
- GI50 (HT-29): 2.97 µM
- GI50 (KM12): 2.1 µM
- GI50 (LOX IMVI): 1.71 µM
- GI50 (SK-MEL-5): 2.99 µM
- GI50 (UACC-62): 5.66 µM
- GI50 (OVCAR-3 [4]): 2.57 µM
- GI50 (OVCAR-5 [5]): 4.29 µM
- GI50 (786-0): 2.42 µM
- GI50 (ACHN [6]): 3.04 µM
- GI50 (CAKI-1 [7]): 2.07 µM
- GI50 (RXF 393 [8]): 1.97 µM
- GI50 (SN12C): 16 µM
- GI50 (TK-10 [9]): 24.5 µM
- GI50 (UO-31 [10]): 2.71 µM
- GI50 (MCF7): 2.44 µM
- TGI (MOLT-4): 11.5 µM
- TGI (SR [11]): 2.65 µM
- TGI (HOP-62): 6.55 µM
- TGI (HCT-15 [12]): 4.23 µM
- TGI (SW-620 [13]): 15.6 µM
- TGI (SNB-19): 28.1 µM
- TGI (U-251 [14]): > 100 µM
- TGI (Malme-3M): 23.4 µM
- TGI (SK-MEL-2): 40.6 µM
- TGI (SK-MEL-28 [15]): 19.6 µM
- TGI (IGROV-1): 25.9 µM
- TGI (OVCAR-4 [16]): 71.5 µM
- TGI (OVCAR-8): > 100 µM
- TGI (CAKI-1 [17]): 11.7 µM
- TGI (RXF 393 [18]): 4.19 µM
- TGI (TK-10 [19]): > 100 µM
- TGI (MDA-MB-231): 9.13 µM
- TGI (BT-549 [20]): 40.6 µM
- TGI (T47D): > 100 µM
- CC50 (K562 [21]): > 100 µM
- CC50 (SR [22]): > 100 µM
- CC50 (HOP-92 [23]): > 100 µM
- CC50 (NCI-H460): > 100 µM
- CC50 (COLO 205 [24]): > 100 µM
- CC50 (HCC 2998): 8.71 µM
- CC50 (HCT-15 [25]): 9.53 µM
- CC50 (SW-620 [26]): > 100 µM
- CC50 (SF-268): > 100 µM
- CC50 (SF-295): 74.3 µM
- CC50 (U-251 [27]): > 100 µM
- CC50 (MDA-MB-435): 70.2 µM
- CC50 (SK-MEL-28 [28]): 65.8 µM
- CC50 (UACC-257): > 100 µM
- CC50 (OVCAR-3 [29]): 62.6 µM
- CC50 (OVCAR-4 [30]): > 100 µM
- CC50 (OVCAR-5 [31]): 63.6 µM
- CC50 (ACHN [32]): > 100 µM
- CC50 (TK-10 [33]): > 100 µM
- CC50 (UO-31 [34]): > 100 µM
- CC50 (DU-145): > 100 µM
- CC50 (BT-549 [35]): > 100 µM

— ChEMBL document CHEMBL5634115, “Exploring novel anticancer pyrazole benzenesulfonamides featuring tail approach strategy as carbonic anhydrase inhibitors” (Eur J Med Chem, 2023)
